The text below walks through data of patent US20220041616A1, “SPIRO COMPOUND AND MEDICAL USES THEREOF” (The National Institutes of Pharmaceutical R&D Co., Ltd., priority 2018, published 2022).

The term IC50 denotes the concentration needed to halve the response being measured. Low readings indicate greater potency in that assay, high ones weaker potency in that assay.

The structures appear in SMILES notation.

The target of the experiment is T1, ACC1 (Homo sapiens, UniProt Q13085).
T1 construct: purchased BPS bioscience
The experiment in a line: In vitro inhibition of ACC1 activity, ADP-Glo Kinase Analysis. Type of experiment: biochemical. The settings on record: 1 nM ACC1, 10 μM acetyl-CoA, 20 μM ATP. The text has this:
ADP-Glo™ Kinase Analysis Kit (Promega) is used for the in vitro analysis of the inhibitory effect of the present compound on ACC1 or ACC2. ADP-Glo™ Kinase Analysis is a kinase detection analysis of luminescence method. ADP is produced in the process of catalyzing the substrate by ACC. ADP is converted into ATP which is then converted into light by Ultra-Glo™ luciferase. ADP is quantified by detecting the light signal, thus the enzyme activity can be measured by quantification of the ADP amount produced during the enzyme reaction. The analysis is carried out in two steps: in the first step, after the kinase reaction, a portion of ADP-Glo™ reagent equal in volume to the kinase reaction system is added to terminate the reaction and consume the remaining ATP; in the second step, a kinase detection reagent is added, which not only converts ADP into ATP, but also uses a coupled luciferase/luciferin reaction to detect newly synthesized ATP.
a. 10 mM compound stock solution (the present compound was dissolved in 100% DMSO to prepare the 10 mM stock solution) was diluted 50-fold to 200 μM with 100% DMSO, and then diluted in equal proportions (1:3) in a 96-well dilution plate (249944, Nunc). The gradient concentrations of the compound were 200 μM, 66.67 μM, 22.22 μM, 7.41 μM, 2.47 μM, 0.823 μM, 0.274 μM, 0.0914 μM, 0.0305 μM, 0.0102 μM, 0.00339 μM and 0.00113 μM.
b. 4.5 μL ACC1 working solution (BPS bioscience) (2.22 nM) was added to each well of a 384-well test plate (6007290, Perkin Elmer).
c. 0.5 μL of the serially diluted compound (prepared in step a) was added to each well of the 384-well test plate, which was centrifuged at 1000 rpm for 1 min and then incubated at room temperature for 15 min. The reaction system with compound GS-0976 at a final concentration of 0.1 μM was used as positive control; the reaction system with no compound but DMSO at a final concentration of 5% was used as negative control.
d. In the 384-well test plate (prepared in step c), 5 μL of the substrate working solution was added to each well to start the enzymatic reaction. The plate was centrifuged at 1000 rpm for 1 min and then incubated at room temperature for 30 min. The final concentration of each component in the ACC1 reaction system: 1 nM ACC1, 10 μM acetyl-CoA, 30 mM NaHCO3, and 20 μM ATP. The final concentration of each component in the ACC2 reaction system: 1.1 nM ACC2, 20 μM acetyl-CoA, 20 mM NaHCO3, and 15 μM ATP. Final concentrations of test compounds: 10 μM, 3.33 μM, 1.11 μM, 0.37 μM, 0.123 μM, 0.0411 μM, 0.0137 μM, 0.00457 μM, 0.00152 μM, 0.00051 μM, 0.00017 μM and 0.000056 μM. The final concentration of DMSO was 5% (v/v).
e. 10 μL of ADP-Glo reagent was added to each well of the 384-well test plate (prepared in step d), which was centrifuged at 1000 rpm for 1 min and then incubated at room temperature for 40 min.
f. 20 μL of kinase detection reagent was added to each well of the 384-well test plate (prepared in step e), which was centrifuged at 1000 rpm for 1 min and then incubated at room temperature for 40 min.
g. The chemiluminescence signal was detected with Perkin Elmer EnVision 2104.
ACC1 working solution and substrate working solution were both prepared with 1× kinase reaction buffer. The buffer was consisting of 50 mM HEPES buffer, 2 mM magnesium chloride, 0.01% BRIJ-35, 2 mM potassium citrate, 50 μg/mL BSA and 2 mM DTT.
The average value of the positive and negative control well and the standard deviation were calculated. The inhibition percentage was calculated according to the following formula: 100×[1−(compound−average value of positive control)/(average value of negative control-average value of positive control)].
IC50 of the compound was obtained using GraphPad Prism 6 software according to the following nonlinear fitting formula:
Y=Bottom+(Top−Bottom)/(1+10^((Log IC50−X)×Hillslope)), […]
A general note: ADP-Glo turns the ADP formed in a reaction into a luminescent signal.
`COc1ccccc1[C@H](CN1c2sc(-c3ncco3)c(C)c2C(=O)[C@]2(C[C@H](C(=O)NC(C)(C)C(=O)O)C2)C1=O)OC1CCOCC1` [Compound 11, 2-((1s,3S)-7′-((R)-2-(2-methoxyphenyl)-2-((tetrahydro-2H-pyran-4-yl)oxy)ethyl)-3′-methyl-2′-(oxazol-2-yl)-4′,6′-dioxo-6′,7′-dihydro-4′H-spiro[cyclobutane-1,5′-thieno[2,3-b]pyridine]-3-carboxyamido)-2-methylpropionic Acid]: the IC50 is < 10 nM.
The same measure for `COc1ccccc1[C@H](CN1c2sc(-c3ncco3)c(C)c2C(=O)[C@]2(C[C@H](C(=O)N(C)C)C2)C1=O)OC1CCOCC1` [Compound 12]: < 10 nM; for `COc1ccccc1[C@H](CN1c2sc(-c3ncco3)c(C)c2C(=O)[C@]2(C[C@H](C(=O)N[C@@H](C)C(=O)O)C2)C1=O)OC1CCOCC1` [Compound 13]: < 10 nM.
Consider `COc1ccccc1[C@H](CN1c2sc(-c3ncco3)c(C)c2C(=O)[C@]2(C[C@H](C(=O)N[C@H](C)C(=O)O)C2)C1=O)OC1CCOCC1` [Compound 14, ((1S,3S)-7′-((R)-2-(2-methoxyphenyl)-2-((tetrahydro-2H-pyran-4-yl)oxy)ethyl)-3′-methyl-2′-(oxazol-2-yl)-4′,6′-dioxo-6′,7′-dihydro-4′H-spiro[cyclobutane-1,5′-thieno[2,3-b]pyridine]-3-carbonyl)-D-alanine], for which the IC50 was < 10 nM.
With `COC(=O)[C@@H](C)NC(=O)[C@H]1C[C@@]2(C1)C(=O)c1c(sc(-c3ncco3)c1C)N(C[C@H](OC1CCOCC1)c1ccccc1OC)C2=O` [Compound 14-1, Methyl ((1S,3S)-7′-((R)-2-(2-methoxyphenyl)-2-((tetrahydro-2H-pyran-4-yl)oxy)ethyl)-3′-methyl-2′-(oxazol-2-yl)-4′,6′-dioxo-6′,7′-dihydro-4′H-spiro[cyclobutane-1,5′-thieno[2,3-b]pyridine]-3-carbonyl)-D-alaninate], the 50% inhibitory concentration (IC50) is < 10 nM.
`COc1ccccc1[C@H](CN1c2sc(-c3ncco3)c(C)c2C(=O)[C@]2(C[C@H](C(=O)N(C)CC(=O)O)C2)C1=O)OC1CCOCC1` [Compound 15, N-((1s,3S)-7′-((R)-2-(2-methoxyphenyl)-2-((tetrahydro-2H-pyran-4-yl)oxy)ethyl)-3′-methyl-2′-(oxazol-2-yl)-4′,6′-dioxo-6′,7′-dihydro-4′H-spiro[cyclobutane-1,5′-thieno[2,3-b]pyridine]-3-carbonyl)-N-methylglycine]: the IC50 was < 10 nM.
Regarding `COC(=O)CN(C)C(=O)[C@H]1C[C@@]2(C1)C(=O)c1c(sc(-c3ncco3)c1C)N(C[C@H](OC1CCOCC1)c1ccccc1OC)C2=O` [Compound 15-1, Methyl N-((1s,3S)-7′-((R)-2-(2-methoxyphenyl)-2-((tetrahydro-2H-pyran-4-yl)oxy)ethyl)-3′-methyl-2′-(oxazol-2-yl)-4′,6′-dioxo-6′,7′-dihydro-4′H-spiro[cyclobutane-1,5′-thieno[2,3-b]pyridine]-3-carbonyl)-N-methylglycinate], the half-inhibitory concentration (IC50) is < 10 nM.
Consider `COc1ccccc1[C@H](CN1c2sc(-c3ncco3)c(C)c2C(=O)[C@]2(C[C@H](C(=O)OCC(=O)O)C2)C1=O)OC1CCOCC1` [Compound 16, 2-(((1s,3S)-7′-((R)-2-(2-methoxyphenyl)-2-((tetrahydro-2H-pyran-4-yl)oxy)ethyl)-3′-methyl-2′-(oxazol-2-yl)-4′,6′-dioxo-6′,7′-dihydro-4′H-spiro[cyclobutane-1,5′-thieno[2,3-b]pyridine]-3-carbonyl)oxy)acetic Acid], for which the IC50 was < 10 nM.
The value for `COc1ccccc1[C@H](CN1c2sc(-c3ncco3)c(C)c2C(=O)[C@]2(C[C@H](C(N)=O)C2)C1=O)OC1CCOCC1` [Compound 17] was < 10 nM; that for `COc1ccccc1[C@H](CN1c2sc(-c3ncco3)c(C)c2C(=O)[C@]2(C[C@H](C(=O)NCCO)C2)C1=O)OC1CCOCC1` [Compound 18, (1s,3S)-N-(2-hydroxyethyl)-7′-((R)-2-(2-methoxyphenyl)-2-((tetrahydro-2H-pyran-4-yl)oxy)ethyl)-3′-methyl-2′-(oxazol-2-yl)-4′,6′-dioxo-6′,7′-dihydro-4′H-spiro[cyclobutane-1,5′-thieno[2,3-b]pyridine]-3-carboxamide] was < 10 nM; that for `COc1ccccc1[C@H](CN1C(=O)C2(CCN(C(=O)OC(C)(C)C)CC2)C(=O)c2c1sc(-c1ncco1)c2C)OC1CCOCC1` [Compound 20, tert-butyl (R)-7′-(2-(2-methoxyphenyl)-2-((tetrahydro-2H-pyran-4-yl)oxy)ethyl)-3′-methyl-2′-(oxazol-2-yl)-4′,6′-dione-6′,7′-dihydro-4′H-spiro[piperidine-4,5′-thieno[2,3-d]pyridine]-1-carboxylate] was 10 to 100 nM.
Regarding `COc1ccccc1[C@H](CN1C(=O)C2(CCNCC2)C(=O)c2c1sc(-c1ncco1)c2C)OC1CCOCC1` [Compound 21, (R)-7′-(2-(2-methoxyphenyl)-2-((tetrahydro-2H-pyran-4-yl)oxy)ethyl)-3′-methyl-2′-(oxazol-2-yl)-4′H-spiro[piperidine-4,5′-thieno[2,3-d]pyridine]-4′,6′(7′H)-dione], the IC50 is < 10 nM.
The same measure for `COC(=O)CN1CCC2(CC1)C(=O)c1c(sc(-c3ncco3)c1C)N(C[C@H](OC1CCOCC1)c1ccccc1OC)C2=O` [Compound 22, methyl (R)-2-(7′-(2-(2-methoxyphenyl)-2-((tetrahydro-2H-pyran-4-yl)oxy)ethyl)-3′-methyl-2′-(oxazol-2-yl)-4′,6′-dioxo-6′,7′-dihydro-4′H-spiro[piperidine-4,5′-thieno[2,3-d]pyridine]-1-yl)carboxylate]: 10 to 100 nM; for `COc1ccccc1[C@H](CN1C(=O)C2(CCN(CC(=O)O)CC2)C(=O)c2c1sc(-c1ncco1)c2C)OC1CCOCC1` [Compound 23, (R)-2-(7′-(2-(2-methoxyphenyl)-2-((tetrahydro-2H-pyran-4-yl)oxy)ethyl)-3′-methyl-2′-(oxazol-2-yl)-4′,6′-dioxo-6′,7′-dihydro-4′H-spiro[piperidine-4,5′-thieno[2,3-d]pyridin]-1-yl)acetic Acid]: < 10 nM.
The value for `COc1ccccc1[C@H](CN1C(=O)C2(CCN(C(C)(C)C(=O)O)CC2)C(=O)c2c1sc(-c1ncco1)c2C)OC1CCOCC1` [Compound 25, (R)-2-(7′-(2-(2-methoxyphenyl)-2-((tetrahydro-2H-pyran-4-yl)oxy)ethyl)-3′-methyl-2′-(oxazol-2-yl)-4′,6′-dioxo-6′,7′-dihydro-4′H-spiro[piperidine-4,5′-thieno[2,3-d]pyridin]-1-yl)-2-methylpropionic Acid] was 10 to 100 nM.
Consider `COC(=O)C(C)(C)N1CCC2(CC1)C(=O)c1c(sc(-c3ncco3)c1C)N(C[C@H](OC1CCOCC1)c1ccccc1OC)C2=O` [Compound 25-1, methyl (R)-2-(7′-(2-(2-methoxyphenyl)-2-((tetrahydro-2H-pyran-4-yl)oxy)ethyl)-3′-methyl-2′-(oxazol-2-yl)-4′,6′-dioxo-6′,7′-dihydro-4′H-spiro[piperidine-4,5′-thieno[2,3-d]pyridin]-1-yl)-2-methylpropanoate], for which the IC50 lay within 10 to 100 nM.
